Columns and labels:
[1] = target: GDP-bound NRAS wild-type protein (Homo sapiens, UniProt P01111); test: Binding to NRAS by surface plasmon resonance (SPR), Single Cycle Kinetics; settings: SPR; KD ratio class
[2] = target: GDP-bound HRAS wild-type protein (Homo sapiens, UniProt P01112); test: Binding to HRAS by surface plasmon resonance (SPR), Single Cycle Kinetics; settings: SPR; KD ratio class
[3] = system: human lung cancer strain NCI-H441; test: cells; settings: NCI-H441, 96 h, read-out: NCI-H441 IC50 (nM)

Sequence of GDP-bound HRAS wild-type protein (P01112 whole entry): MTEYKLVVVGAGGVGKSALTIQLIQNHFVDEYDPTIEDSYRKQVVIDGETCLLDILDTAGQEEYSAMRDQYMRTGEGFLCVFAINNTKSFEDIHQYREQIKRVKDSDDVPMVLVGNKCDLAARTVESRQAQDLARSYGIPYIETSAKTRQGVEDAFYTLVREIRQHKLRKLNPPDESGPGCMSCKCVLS
Sequence of GDP-bound NRAS wild-type protein (P01111 whole entry): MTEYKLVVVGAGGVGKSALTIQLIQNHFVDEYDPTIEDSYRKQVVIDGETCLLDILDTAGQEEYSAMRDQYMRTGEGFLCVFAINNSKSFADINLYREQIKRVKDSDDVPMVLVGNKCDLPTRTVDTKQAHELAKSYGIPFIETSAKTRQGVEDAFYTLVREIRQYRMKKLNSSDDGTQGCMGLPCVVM

Structure (SMILES)	NRAS/KRAS (ratio of KD value for GDP-bound NRAS wild-type protein to KD value for KRAS) [1]	HRAS/KRAS (ratio of KD value for GDP-bound HRAS wild-type protein to KD value for KRAS) [2]	IC50 [3]
CCO[C@@H]1C[C@H]2C(=O)NC3(CCC3)C(=O)N(C)[C@@H](C(CC)CC)C(=O)N(C)[C@H](C(=O)N(C)C)CC(=O)N(C)[C@@H](CC3CC3)C(=O)N[C@@H]([C@@H](C)CC)C(=O)N(C)CC(=O)N(C)[C@H]3C/C=C\CCN(C3=O)[C@@H](Cc3ccc(C(F)(F)F)cc3)C(=O)N(C)CC(=O)N[C@@H](CCc3ccc4sccc4c3)C(=O)N2C1 [PP1227]	A (a compound having 10 or more and less than 20 is denoted as A)	A (a compound having 10 or more and less than 20 is denoted as A)	128 nM
CCO[C@@H]1C[C@H]2C(=O)NC3(CCC3)C(=O)N(C)[C@@H](C3CCCC3)C(=O)N(C)[C@H](C(=O)N3CCOCC3)CC(=O)N(C)[C@@H](CC(F)F)C(=O)N[C@@H]([C@@H](C)CC)C(=O)N(C)CC(=O)N(C)[C@H]3C/C=C\CCN(C3=O)[C@@H](Cc3ccc(C(F)(F)F)cc3)C(=O)N(C)CC(=O)N[C@@H](CCc3cc(F)c(C(F)(F)F)c(F)c3)C(=O)N2C1 [PP1285]	AA (a compound having 20 or more is denoted as AA)	A (a compound having 10 or more and less than 20 is denoted as A)	24.6 nM
CCO[C@@H]1C[C@H]2C(=O)NC3(CCC3)C(=O)N(C)[C@@H](C3CCCC3)C(=O)N(C)[C@H](C(=O)N3CCCC3)CC(=O)N(C)[C@@H](CC3CCCC3)C(=O)N[C@@H]([C@@H](C)CC)C(=O)N(C)CC(=O)N(C)[C@H]3C/C=C\CCN(C3=O)[C@@H](Cc3ccc(F)cc3)C(=O)N(C)CC(=O)N[C@@H](CCc3ccc4sccc4c3)C(=O)N2C1 [PP1391]	A (a compound having 10 or more and less than 20 is denoted as A)	A (a compound having 10 or more and less than 20 is denoted as A)	271 nM
CCO[C@@H]1C[C@H]2C(=O)NC3(CCCC3)C(=O)N(C)[C@@H](C3CCCC3)C(=O)N(C)[C@H](C(=O)N(C)C)CC(=O)N(C)[C@@H](CC)C(=O)N[C@@H]([C@@H](C)CC)C(=O)N(C)CC(=O)N(C)[C@H]3CC[C@@H](C)CN(C3=O)[C@@H](Cc3ccc(C(F)(F)F)cc3)C(=O)N(C)CC(=O)N[C@@H](CCc3ccc(C(F)(F)F)c(Cl)c3)C(=O)N2C1 [PP1376]	B (a compound having 3 or more and less than 10 is denoted as B)	B (a compound having 3 or more and less than 10 is denoted as B)	3.5 nM
CCO[C@@H]1C[C@H]2C(=O)NC3(CCC3)C(=O)N(C)[C@@H](C3CCCC3)C(=O)N(C)[C@H](C(=O)N3CCOCC3)CC(=O)N(C)[C@@H](CC)C(=O)N[C@@H]([C@@H](C)CC)C(=O)N(C)CC(=O)N(C)[C@H]3C[C@@H](C)[C@@H](C)CN(C3=O)[C@@H](Cc3ccc(C(F)(F)F)cc3)C(=O)N(C)CC(=O)N[C@@H](CCc3ccc(C(F)(F)F)c(Cl)c3)C(=O)N2C1 [PP1360]	A (a compound having 10 or more and less than 20 is denoted as A)	B (a compound having 3 or more and less than 10 is denoted as B)	4.9 nM
CCC[C@H]1C(=O)N[C@@H]([C@@H](C)CC)C(=O)N(C)CC(=O)N(C)[C@H]2C/C=C\CCN(C2=O)[C@@H](Cc2ccc(C(F)(F)F)cc2)C(=O)N(C)CC(=O)N[C@@H](CCc2cc(F)c(Cl)c(F)c2)C(=O)N2C[C@H](OCC)C[C@H]2C(=O)NC2(CCC2)C(=O)N(C)[C@@H](C(CC)CC)C(=O)N(C)[C@H](C(=O)N(C)C)CC(=O)N1C [PP1231]	AA (a compound having 20 or more is denoted as AA)	A (a compound having 10 or more and less than 20 is denoted as A)	23.1 nM
CCO[C@@H]1C[C@H]2C(=O)NC3(CCC3)C(=O)N(C)[C@@H](C3CCCC3)C(=O)N(C)[C@H](C(=O)N(C)C)CC(=O)N(C)[C@@H](CC3CCCC3)C(=O)N[C@@H]([C@@H](C)CC)C(=O)N(C)CC(=O)N(C)[C@H]3C/C=C\CCN(C3=O)[C@@H](CC3CCC(F)(F)CC3)C(=O)N(C)CC(=O)N[C@@H](CCc3cc(F)c(C(F)(F)F)c(F)c3)C(=O)N2C1 [PP1458]	A (a compound having 10 or more and less than 20 is denoted as A)	A (a compound having 10 or more and less than 20 is denoted as A)	18.2 nM
CC[C@H](C)[C@@H]1NC(=O)[C@H](CC2CC2)N(C)C(=O)C[C@@H](C(=O)N2CCOCC2)N(C)C(=O)[C@H](C2CCCC2)N(C)C(=O)C2(CCC2)NC(=O)[C@@H]2CCCN2C(=O)[C@H](CCc2ccc(C(F)(F)F)c(Cl)c2)NC(=O)CN(C)C(=O)[C@H](Cc2ccc(C(F)(F)F)cc2)N2C[C@H](C)CC[C@@H](C2=O)N(C)C(=O)[C@@H]2CCN2C1=O [PP1341]	A (a compound having 10 or more and less than 20 is denoted as A)	B (a compound having 3 or more and less than 10 is denoted as B)	46.3 nM
CCO[C@@H]1C[C@H]2C(=O)NC3(CCC3)C(=O)N(C)[C@@H](C3CCCC3)C(=O)N(C)[C@H](C(=O)N(C)C)CC(=O)N(C)[C@@H](CC3CCCC3)C(=O)N[C@@H]([C@@H](C)CC)C(=O)N(C)CC(=O)N(C)[C@H]3C/C=C\CCN(C3=O)[C@@H](Cc3ccc(C(F)(F)F)cc3)C(=O)N(C)CC(=O)N[C@@H](CCc3ccc(Cl)c(Cl)c3)C(=O)N2C1 [PP1254]	AA (a compound having 20 or more is denoted as AA)	A (a compound having 10 or more and less than 20 is denoted as A)	28.3 nM
CCO[C@@H]1C[C@H]2C(=O)NC3(CCC3)C(=O)N(C)[C@@H](C3CCCC3)C(=O)N(C)[C@H](C(=O)N3CCOCC3)CC(=O)N(C)[C@@H](CC(C)C)C(=O)N[C@@H]([C@@H](C)CC)C(=O)N3CC[C@H]3C(=O)N(C)[C@H]3C[C@@H](C)[C@@H](C)CN(C3=O)[C@@H](Cc3ccc(C(F)(F)F)cc3)C(=O)N(C)CC(=O)N[C@@H](CCc3cc(F)c(C(F)(F)F)c(F)c3)C(=O)N2C1 [PP1355]	A (a compound having 10 or more and less than 20 is denoted as A)	B (a compound having 3 or more and less than 10 is denoted as B)	10.2 nM
CCO[C@@H]1C[C@H]2C(=O)NC3(CCC3)C(=O)N(C)[C@@H](C3CCCC3)C(=O)N(C)[C@H](C(=O)N3CCOCC3)CC(=O)N(C)[C@@H](CC(C)C)C(=O)N[C@@H]([C@@H](C)CC)C(=O)N3CC[C@H]3C(=O)N(C)[C@H]3CC[C@@H](C)CN(C3=O)[C@@H](Cc3ccc(C(F)(F)F)cc3)C(=O)N(C)CC(=O)N[C@@H](CCc3cc(F)c(C(F)(F)F)c(F)c3)C(=O)N2C1 [PP1373]	B (a compound having 3 or more and less than 10 is denoted as B)	B (a compound having 3 or more and less than 10 is denoted as B)	12.2 nM
CCO[C@@H]1C[C@H]2C(=O)NC3(CC(C)(C)C3)C(=O)N(C)[C@@H](C3CCCC3)C(=O)N(C)[C@H](C(=O)N(C)CC)CC(=O)N(C)[C@@H](CC)C(=O)N[C@@H]([C@@H](C)CC)C(=O)N(C)CC(=O)N(C)[C@H]3C/C=C\CCN(C3=O)[C@@H](Cc3ccc(C(F)(F)F)cc3)C(=O)N(C)CC(=O)N[C@@H](CCc3cc(F)c(C(F)(F)F)c(F)c3)C(=O)N2C1 [PP1579]	A (a compound having 10 or more and less than 20 is denoted as A)	B (a compound having 3 or more and less than 10 is denoted as B)	4.1 nM
CCC[C@H]1C(=O)N[C@@H]([C@@H](C)CC)C(=O)N(C)CC(=O)N(C)[C@H]2C/C=C\CCN(C2=O)[C@@H](Cc2ccc(C(F)(F)F)cc2)C(=O)N(C)CC(=O)N[C@@H](CCc2cc(F)c(C(F)(F)F)c(F)c2)C(=O)N2C[C@H](OCC)C[C@H]2C(=O)NC2(CCC2)C(=O)N(C)[C@@H](C2CCCC2)C(=O)N(C)[C@H](C(=O)N2CCCCC2)CC(=O)N1C [PP1294]	A (a compound having 10 or more and less than 20 is denoted as A)	A (a compound having 10 or more and less than 20 is denoted as A)	10 nM
CCO[C@@H]1C[C@H]2C(=O)NC3(CCC3)C(=O)N(C)[C@@H](C(CC)CC)C(=O)N(C)[C@H](C(=O)N(C)C)CC(=O)N(C)[C@@H](COC)C(=O)N[C@@H]([C@@H](C)CC)C(=O)N(C)CC(=O)N(C)[C@H]3C/C=C\CCN(C3=O)[C@@H](Cc3ccc(C(F)(F)F)cc3)C(=O)N(C)CC(=O)N[C@@H](CCc3ccc(C(F)(F)F)c(OC)c3)C(=O)N2C1 [PP1213]	AA (a compound having 20 or more is denoted as AA)	A (a compound having 10 or more and less than 20 is denoted as A)	40.4 nM
CC[C@H](C)[C@@H]1NC(=O)[C@H](CC)N(C)C(=O)C[C@@H](C(=O)N2CCOCC2)N(C)C(=O)[C@H](C2CCCC2)N(C)C(=O)C2(CCCC2)NC(=O)[C@@H]2CCCN2C(=O)[C@H](CCc2cc(F)c(C(F)(F)F)c(F)c2)NC(=O)CN(C)C(=O)[C@H](Cc2ccc(C(F)(F)F)cc2)N2C[C@H](C)CC[C@@H](C2=O)N(C)C(=O)CN(C)C1=O [PP1383]	B (a compound having 3 or more and less than 10 is denoted as B)	B (a compound having 3 or more and less than 10 is denoted as B)	11.2 nM
